From BindingDB's records for doi:10.1016/j.chembiol.2004.08.006 (University of Washington, 2004)

Experiments:
Experiment in all cases: Inhibition Assay
[1] = molecular target: T1, Coagulation factor VIII (Homo sapiens, UniProt P00451); details: pH 7.9
Source text: Inhibition of factor X activation assay. A commercially available chromogenic assay that measures the rate of factor X activation to measure inhibiton of the cofactor function of factor VIII.

[2] = molecular target: T1, Coagulation factor VIII; details: 37 °C
Source text: Inhibition of factor VIII C2 domain.

[3] = molecular target: T1, Coagulation factor VIII; details: pH 8
Experimental: Inhibition of factor VIII ELISA. The interaction between factor VIII and PS was measured by using an enzyme-linked immunoadsorbent assay (ELISA).

T1 sequence (P00451 20-759 limits assumed): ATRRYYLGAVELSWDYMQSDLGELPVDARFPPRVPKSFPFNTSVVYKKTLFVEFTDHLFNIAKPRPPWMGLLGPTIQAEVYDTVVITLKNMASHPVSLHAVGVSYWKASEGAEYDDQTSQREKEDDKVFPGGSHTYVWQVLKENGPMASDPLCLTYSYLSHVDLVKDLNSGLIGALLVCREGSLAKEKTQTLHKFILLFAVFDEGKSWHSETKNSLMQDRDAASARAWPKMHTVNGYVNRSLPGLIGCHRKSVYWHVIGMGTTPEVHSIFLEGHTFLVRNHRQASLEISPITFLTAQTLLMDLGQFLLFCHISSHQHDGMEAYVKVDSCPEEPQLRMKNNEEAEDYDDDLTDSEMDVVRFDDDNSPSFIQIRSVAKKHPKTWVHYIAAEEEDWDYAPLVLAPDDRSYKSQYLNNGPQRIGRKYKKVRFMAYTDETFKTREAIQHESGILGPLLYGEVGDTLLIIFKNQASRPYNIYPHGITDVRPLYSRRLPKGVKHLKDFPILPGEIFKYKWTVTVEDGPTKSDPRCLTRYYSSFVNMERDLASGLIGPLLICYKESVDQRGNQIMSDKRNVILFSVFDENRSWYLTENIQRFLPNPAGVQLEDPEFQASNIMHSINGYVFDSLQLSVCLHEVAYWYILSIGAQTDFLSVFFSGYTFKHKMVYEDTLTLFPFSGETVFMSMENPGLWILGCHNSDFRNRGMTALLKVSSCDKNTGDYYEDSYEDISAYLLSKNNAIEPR
T1 sequence (P00451 1668-2351 limits assumed): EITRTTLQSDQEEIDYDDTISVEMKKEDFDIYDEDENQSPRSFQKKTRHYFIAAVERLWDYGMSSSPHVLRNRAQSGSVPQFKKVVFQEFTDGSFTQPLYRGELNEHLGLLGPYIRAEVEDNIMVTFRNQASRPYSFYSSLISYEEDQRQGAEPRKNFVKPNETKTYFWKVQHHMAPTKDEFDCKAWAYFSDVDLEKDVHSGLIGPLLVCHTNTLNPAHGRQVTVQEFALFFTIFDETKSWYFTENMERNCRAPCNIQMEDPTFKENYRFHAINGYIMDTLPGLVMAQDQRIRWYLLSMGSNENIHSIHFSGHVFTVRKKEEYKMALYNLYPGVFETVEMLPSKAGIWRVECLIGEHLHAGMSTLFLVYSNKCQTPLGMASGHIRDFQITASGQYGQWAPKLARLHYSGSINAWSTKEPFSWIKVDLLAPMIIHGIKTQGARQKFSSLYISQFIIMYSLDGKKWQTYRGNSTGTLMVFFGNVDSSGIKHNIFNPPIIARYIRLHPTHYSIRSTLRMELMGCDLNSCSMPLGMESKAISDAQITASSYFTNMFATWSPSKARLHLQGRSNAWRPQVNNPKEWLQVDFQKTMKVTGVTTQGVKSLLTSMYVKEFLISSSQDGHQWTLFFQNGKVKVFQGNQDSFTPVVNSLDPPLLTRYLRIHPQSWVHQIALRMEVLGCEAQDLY

In the case of O=C1NC(=S)NC(=O)C1=Cc1ccc(-c2cccc(C(=O)O)c2Cl)o1 [8056354], the IC50 [1] is reported as 6.8 µM, the IC50 [2] is reported as 6.29 µM and the IC50 [3] is reported as 6.51 µM.

Molecule CC(C=Cc1ccco1)=NCCCCNC(=O)C=Cc1ccco1 [5247489] has an IC50 [2] of 56.1 µM.

With O=C1/C(=C/c2ccc(Br)o2)SC(=S)N1c1cccc(C(F)(F)F)c1 [5737176] the IC50 [1] was 8.5 µM, the IC50 [2] was 6.66 µM and the IC50 [3] was 9.25 µM.

N=C(NN=Cc1ccc(F)cc1)NN=Cc1ccc(F)cc1 [5924029] was tested, and the IC50 [2] was 24.5 µM.

O=C1NC(=S)NC(=O)C1=Cc1ccc(-c2cc(Cl)c([N+](=O)[O-])cc2Cl)o1 [6190013] was tested, and the IC50 [1] was 7.5 µM, the IC50 [2] was 8.48 µM and the IC50 [3] was 2.11 µM.

COc1cc(C=Nn2c(O)csc2=S)ccc1OCCOc1ccc(C(C)(C)C)cc1 [6209549] showed an IC50 [2] of 12.4 µM.

Molecule O=C1/C(=C\c2ccc(Sc3ccc(Cl)cc3)o2)SC(=S)N1c1ccc([N+](=O)[O-])cc1 [6789536] has an IC50 [1] of 5.6 µM, an IC50 [2] of 5.85 µM and an IC50 [3] of 4.81 µM.

CCOc1ccc(-c2cc(C)n3nc(C(N)=O)cc3n2)cc1 showed an IC50 [2] of 26.8 µM.

CCOc1ccc(Cl)cc1/C=C1/SC(=S)N(CC)C1=O [6168356] gave an IC50 [2] of 49.6 µM.

In the case of COc1cc(/C=C2/SC(=S)N(CC(=O)Nc3ccccn3)C2=O)cc(OC)c1OC [6126765], the IC50 [2] is reported as 11.9 µM.

With CCOC(=O)c1c(NC(=S)NC(=O)c2ccccc2)sc2c1CCC(C)C2 (stereo unspecified) [5523453] the IC50 [2] was 27.7 µM.

Work on O=C1NC(=S)NC(=O)C1=Cc1ccc(-c2ccc(Cl)c(C(=O)O)c2)o1 [8048422] yielded an IC50 [1] of 6.7 µM, an IC50 [2] of 4.17 µM and an IC50 [3] of 3.89 µM.

O=C1/C(=C/c2ccc(-c3ccc(Cl)cc3Cl)o2)SC(=S)N1c1cccc(C(F)(F)F)c1 [8047577] showed an IC50 [1] of 2.1 µM, an IC50 [2] of 2.44 µM and an IC50 [3] of 2.56 µM.

In the case of O=C1/C(=C/c2ccc(I)o2)SC(=S)N1c1cccc(C(F)(F)F)c1 [5738875], the IC50 [1] is reported as 5 µM, the IC50 [2] is reported as 5.65 µM and the IC50 [3] is reported as 6.83 µM.

O=C1/C(=C/c2ccc(Br)o2)SC(=S)N1c1ccc([N+](=O)[O-])cc1 [5739991] gave an IC50 [1] of 11.7 µM, an IC50 [2] of 4.63 µM and an IC50 [3] of 10.4 µM.
